Consider 2 molecules from US9399649B2, “Compounds for treating spinal muscular atrophy” (PTC Therapeutics Inc., priority 2012, dated 2016).

Assay [1] is described as follows: Body weight of neonatal Δ7 SMA mice. In kind it is in vivo. To be noted: neonatal SMA Δ7 homozygous knockout mice, IP QD PND 3 to PND 23, then orally BID from PND 24 until study end, FIG. 13. How it is done:
The change in body weight of neonatal SMA mice is used to determine whether treatment with a test compound improves body weight.
SMA Δ7 homozygous knockout mice are dosed intraperitoneally (IP) with test compound or vehicle (100% DMSO) QD from PND 3 until the dose regimen is switched to an oral dose BID in 0.5% hydroxypropylmethyl cellulose (HPMC) with 0.1% Tween-80 at a dose 3.16-fold higher than the dose used for IP. Body weights of SMA Δ7 mice treated with test compound or vehicle and age matched heterozygous mice are recorded every day.

The test system of assay [2] is full length and Δ7 SMN2 mRNA. As to the kind of experiment: SMN2 mRNA RT-qPCR splicing assay in animal tissues. To be noted: C/C-allele SMA mice, brain and muscle, 10 mg/kg oral BID for 10 days, FIG. 6. It is filed as in vivo. How it is done: The reverse transcription-quantitative PCR-based (RT-qPCR) assay is used to quantify the levels of the full length and Δ7 SMN2 mRNA in tissues from mice treated with test compound.
C/C-allele SMA mice are treated by oral gavage two times per day (BID) for 10 days with test compounds re-suspended in 0.5% HPMC and 0.1% Tween-80. Tissue samples were collected and snap frozen for RNA purification.
Tissue samples (20-40 mg) are homogenized in QIAzol Lysis Reagent for 2 minutes at 20 Hz in the TissueLyser II using one stainless steel bead. After addition of chloroform, the homogenate is separated into aqueous and organic phases by centrifugation. RNA partitioned to the upper, aqueous phase is extracted and ethanol is added to provide appropriate binding conditions. The sample is then applied to the RNeasy spin column from the RNeasy Mini Kit, where total RNA binds to the membrane. The RNA is eluted in RNase-free water then stored at −20° C. and subsequently analyzed using the TaqMan RT-qPCR on the 7900HT Thermocycler. Total RNA is diluted ten fold and 2.5 μL, of the diluted sample is added to the TaqMan RT-qPCR mixture.
SMN2 spliced products are identified using the following primers and probes in Table 7. Primer SMN FL Forward B (SEQ ID NO. 7) hybridizes to a nucleotide sequence in exons 7 and 8, primer SMN Δ7 Forward B (SEQ ID NO. 8) hybridizes to a nucleotide sequence in exons 6 and 8, primer SMN Reverse B (SEQ ID NO. 9) hybridizes to a nucleotide sequence in exon 8, probe SMN Probe B (SEQ ID NO. 10) hybridizes to a nucleotide sequence in exon 8. These primers and probe hybridize to nucleotide sequences common to human SMN1 and SMN2 mRNA. Since the SMA patient cells used in Example 5 contain only the SMN2 gene, RT-qPCR can quantify only SMN2 full-length and Δ7 mRNA.
The SMN forward and reverse primers are used at final concentrations of 0.4 μM. The SMN probe is used at a final concentration of 0.15 μM. The SMN-GAPDH Mix (10 μL, total volume) is prepared by combining 5 μL of 2×RT-PCR buffer, 0.4 μL of 25×RT-PCR enzyme mix, 0.5 μL of 20×GAPDH primer-probe mix, 1.505 μL of water, 2.5 μL of RNA solution, 0.04 μL of 100 μM forward primer, 0.04 μL of 100 μM reverse primer, and 0.015 μL of 100 μM SMN probe. […]
The increase of SMN2 FL and decrease in SMN2 Δ7 mRNA relative to those in tissues from animals treated with vehicle control are determined from real-time PCR data using a modified ΔΔCt method (as described in Livak and Schmittgen, Methods, 2001, 25:402-8). The amplification efficiency (E) is calculated from the slope of the amplification curve for SMN2 FL, SMN2 Δ7, and GAPDH individually. The abundances of SMN2 FL, SMN2 Δ7, and GAPDH are then calculated as (1+E)^−Ct, where Ct is the threshold value for each amplicon. […]
In general terms: Quantitative PCR measures a nucleic acid by following its amplification.

On to `Cc1cn2cc(-c3cc4ccc(N5CCN(C)CC5)cc4c(=O)o3)nc2c(C)n1` [Cpd 65, 3-(6,8-dimethylimidazo[1,2-a]pyrazin-2-yl)-7-(4-methylpiperazin-1-yl)-1H-isochromen-1-one], for which the body weight result in assay [1] is “improved compared to vehicle treated mice”. For the same molecule, in assay [2], the “SMN2 FL mRNA in tissues” value was “substantially more SMN2 FL mRNA” and the “SMN2 Δ7 mRNA in tissues” value is “less SMN2 Δ7 mRNA”.

With `Cc1cn2cc(-c3cc4ccc(N5CCN6CCC[C@H]6C5)cc4c(=O)o3)nc2c(C)n1` [Cpd 69, 3-(6,8-dimethylimidazo[1,2-a]pyrazin-2-yl)-7-[(8aS)-hexahydropyrrolo[1,2-a]pyrazin-2(1H)-yl]-1H-isochromen-1-one], in assay [1], the body weight entry was “improved compared to vehicle treated mice”. Also, in assay [2], the “SMN2 FL mRNA in tissues” value is “substantially more SMN2 FL mRNA” and the “SMN2 Δ7 mRNA in tissues” value was “less SMN2 Δ7 mRNA”.
